Results reported in patent US9868772B2 (INDIANA UNIVERSITY RESEARCH AND TECHNOLOGY CORPORATION, priority 2012, dated 2018).
pEC50: −log10 of the molar value. Numbered stars: 1 amine (or outer) side, 2 acyl side, 3 side chain; on linkers, the order of the positions; unused ones are H or OH. Square brackets hold non-standard residues; d marks the D form. Side chains are listed from the residue outwards. Peptide text beside a SMILES is read from it. * marks the point of attachment. γGlu = O=C(O)[C@H](CCC(=O)[*:2])N[*:1]; Palmitoyl = CCCCCCCCCCCCCCCC(=O)*; 2Thi = N[C@@H](Cc1cccs1)C(=O)O

Experiments:
GIP receptor [1] = molecular target: T1, GIP receptor (Homo sapiens, UniProt P48546); conditions: relative to native GIP; cited from earlier work
T1 construct: expressed in transfected cells; host or cells: HEK293
T1 sequence (P48546 22-466): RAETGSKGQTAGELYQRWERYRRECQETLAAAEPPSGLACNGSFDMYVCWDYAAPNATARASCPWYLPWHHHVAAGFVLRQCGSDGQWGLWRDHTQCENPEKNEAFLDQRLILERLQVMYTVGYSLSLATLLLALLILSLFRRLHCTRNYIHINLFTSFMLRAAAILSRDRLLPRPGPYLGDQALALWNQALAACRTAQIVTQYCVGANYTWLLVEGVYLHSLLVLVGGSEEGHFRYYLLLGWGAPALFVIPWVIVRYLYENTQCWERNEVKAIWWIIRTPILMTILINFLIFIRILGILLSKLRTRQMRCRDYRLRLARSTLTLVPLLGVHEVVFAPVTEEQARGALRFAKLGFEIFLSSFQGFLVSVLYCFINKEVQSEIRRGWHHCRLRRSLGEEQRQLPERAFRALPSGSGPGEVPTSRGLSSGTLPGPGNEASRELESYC

GIP receptor [2] = molecular target: T1, GIP receptor; test: cAMP induction, firefly luciferase reporter assay in HEK293 cells co-transfected with receptor; format: cell-based; conditions: Table 1, analogs of SEQ ID NO: 37
Description: (§1) The ability of glucagon analogs to induce cAMP was measured in a firefly luciferase-based reporter assay. […] At the end of the incubation 100 microliters of LucLite luminescence substrate reagent (Perkin-Elmer, Wellesley, Mass.) were added to each well. […] Effective 50% concentrations were calculated by using Origin software (OriginLab, Northampton, Mass.

GLP-1 receptor = molecular target: T2, GLP-1 receptor (Homo sapiens, UniProt P43220); test: as above; format: cell-based; conditions: Table 1, analogs of SEQ ID NO: 37
T2 construct: expressed in transfected cells; host or cells: HEK293
T2 sequence (P43220 24-463): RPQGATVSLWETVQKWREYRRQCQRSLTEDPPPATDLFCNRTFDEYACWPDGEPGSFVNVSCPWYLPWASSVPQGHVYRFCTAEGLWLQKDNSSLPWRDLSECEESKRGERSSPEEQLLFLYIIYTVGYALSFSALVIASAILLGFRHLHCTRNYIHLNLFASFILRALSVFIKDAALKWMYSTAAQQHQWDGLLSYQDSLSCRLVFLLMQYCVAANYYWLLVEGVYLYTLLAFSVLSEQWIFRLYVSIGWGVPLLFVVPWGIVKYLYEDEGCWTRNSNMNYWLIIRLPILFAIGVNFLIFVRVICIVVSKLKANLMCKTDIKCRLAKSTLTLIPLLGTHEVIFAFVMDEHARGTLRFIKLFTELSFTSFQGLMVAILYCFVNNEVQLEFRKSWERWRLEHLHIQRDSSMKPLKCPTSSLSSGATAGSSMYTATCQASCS
Description: as §1

glucagon receptor = molecular target: T3, glucagon receptor (Homo sapiens, UniProt P47871); test: as above; format: cell-based; conditions: Table 1, analogs of SEQ ID NO: 37
T3 construct: expressed in transfected cells; host or cells: HEK293
T3 sequence (P47871 26-477): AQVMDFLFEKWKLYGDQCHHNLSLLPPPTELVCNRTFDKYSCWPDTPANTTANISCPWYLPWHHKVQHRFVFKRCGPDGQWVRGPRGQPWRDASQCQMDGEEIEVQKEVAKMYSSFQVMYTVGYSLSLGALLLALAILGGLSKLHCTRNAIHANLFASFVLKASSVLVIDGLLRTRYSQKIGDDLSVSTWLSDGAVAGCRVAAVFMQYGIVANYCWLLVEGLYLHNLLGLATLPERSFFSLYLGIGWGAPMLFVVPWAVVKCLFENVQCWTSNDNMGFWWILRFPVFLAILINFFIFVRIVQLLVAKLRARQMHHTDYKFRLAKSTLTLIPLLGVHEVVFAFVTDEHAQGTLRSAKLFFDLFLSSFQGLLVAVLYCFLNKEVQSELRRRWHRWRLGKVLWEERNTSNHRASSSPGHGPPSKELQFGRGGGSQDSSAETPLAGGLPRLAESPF
Description: as §1

Compound | activity of native GIP at the GIP receptor (GIP receptor [1]) | pEC50 (GIP receptor [2]) | pEC50 (GLP-1 receptor) | pEC50 (glucagon receptor)
Native glucagon: native human glucagon (SEQ ID NO: 1) | ~0% | – | – | –
CCCCCCCCCCCCCCCC(=O)N[C@@H](CCC(=O)NCCCC[C@H](NC(=O)[C@H](CC(=O)O)NC(=O)[C@H](CO)NC(=O)[C@@H](NC(=O)[C@H](Cc1ccccc1)NC(=O)[C@@H](NC(=O)CNC(=O)[C@H](CCC(N)=O)NC(=O)CNC(=O)[C@@H](N)Cc1cccs1)[C@@H](C)O)[C@@H](C)O)C(=O)N[C@@H](CO)C(=O)N[C@@H](CCCCN)C(=O)N[C@@H](Cc1ccc(O)cc1)C(=O)N[C@@H](CC(C)C)C(=O)N[C@@H](CC(=O)O)C(=O)N[C@@H](CCC(=O)O)C(=O)N[C@@H](CCCNC(=N)N)C(=O)N[C@@H](C)C(=O)N[C@@H](C)C(=O)N[C@@H](CCC(N)=O)C(=O)N[C@@H](CC(=O)O)C(=O)N[C@@H](Cc1ccccc1)C(=O)N[C@H](C(=O)N[C@@H](CCC(N)=O)C(=O)N[C@@H](Cc1c[nH]c2ccccc12)C(=O)N[C@@H](CC(C)C)C(=O)N[C@@H](CC(C)C)C(=O)N[C@@H](CCC(=O)O)C(=O)NCC(=O)NCC(=O)N1CCC[C@H]1C(=O)N[C@@H](CO)C(=O)N[C@@H](CO)C(=O)NCC(=O)N[C@@H](C)C(=O)N1CCC[C@H]1C(=O)N1CCC[C@H]1C(=O)N1CCC[C@H]1C(=O)N[C@@H](CO)C(N)=O)C(C)C)C(=O)O [compound 29] (H-[2Thi]GQGTFTSDK([γGlu-Palmitoyl])SKYLDERAAQDFVQWLLEGGPSSGAPPPS-NH2; N-terminus assumed) | – | 10.02 | 11.15 | 10.42
CCCCCCCCCCCCCCCC(=O)N[C@@H](CCC(=O)NCCCC[C@H](NC(=O)[C@H](CC(=O)O)NC(=O)[C@H](CO)NC(=O)[C@@H](NC(=O)[C@H](Cc1ccccc1)NC(=O)[C@@H](NC(=O)CNC(=O)[C@H](CCC(N)=O)NC(=O)[C@H](C)NC(=O)[C@@H](Cc1c[nH]cn1)NC(C)=O)[C@@H](C)O)[C@@H](C)O)C(=O)N[C@@H](CO)C(=O)N[C@@H](CCCCN)C(=O)N[C@@H](Cc1ccc(O)cc1)C(=O)N[C@@H](CC(C)C)C(=O)N[C@@H](CC(=O)O)C(=O)N[C@@H](CCC(=O)O)C(=O)N[C@@H](CCCNC(=N)N)C(=O)N[C@@H](C)C(=O)N[C@@H](C)C(=O)N[C@@H](CCC(N)=O)C(=O)N[C@@H](CC(=O)O)C(=O)N[C@@H](Cc1ccccc1)C(=O)N[C@H](C(=O)N[C@@H](CCC(N)=O)C(=O)N[C@@H](Cc1c[nH]c2ccccc12)C(=O)N[C@@H](CC(C)C)C(=O)N[C@@H](CC(C)C)C(=O)N[C@@H](CCC(=O)O)C(=O)NCC(=O)NCC(=O)N1CCC[C@H]1C(=O)N[C@@H](CO)C(=O)N[C@@H](CO)C(=O)NCC(=O)N[C@@H](C)C(=O)N1CCC[C@H]1C(=O)N1CCC[C@H]1C(=O)N1CCC[C@H]1C(=O)N[C@@H](CO)C(N)=O)C(C)C)C(=O)O [compound 13] | – | 11.40 | 11.40 | 11.70
CCCCCCCCCCCCCCCC(=O)N[C@@H](CCC(=O)NCCCC[C@H](NC(=O)[C@H](CC(=O)O)NC(=O)[C@H](CO)NC(=O)[C@@H](NC(=O)[C@H](Cc1ccccc1)NC(=O)[C@@H](NC(=O)CNC(=O)[C@H](CCC(N)=O)NC(=O)[C@H](C)NC(=O)[C@@H](Cc1cccs1)NC(C)=O)[C@@H](C)O)[C@@H](C)O)C(=O)N[C@@H](CO)C(=O)N[C@@H](CCCCN)C(=O)N[C@@H](Cc1ccc(O)cc1)C(=O)N[C@@H](CC(C)C)C(=O)N[C@@H](CC(=O)O)C(=O)N[C@@H](CCC(=O)O)C(=O)N[C@@H](CCCNC(=N)N)C(=O)N[C@@H](C)C(=O)N[C@@H](C)C(=O)N[C@@H](CCC(N)=O)C(=O)N[C@@H](CC(=O)O)C(=O)N[C@@H](Cc1ccccc1)C(=O)N[C@H](C(=O)N[C@@H](CCC(N)=O)C(=O)N[C@@H](Cc1c[nH]c2ccccc12)C(=O)N[C@@H](CC(C)C)C(=O)N[C@@H](CC(C)C)C(=O)N[C@@H](CCC(=O)O)C(=O)NCC(=O)NCC(=O)N1CCC[C@H]1C(=O)N[C@@H](CO)C(=O)N[C@@H](CO)C(=O)NCC(=O)N[C@@H](C)C(=O)N1CCC[C@H]1C(=O)N1CCC[C@H]1C(=O)N1CCC[C@H]1C(=O)N[C@@H](CO)C(N)=O)C(C)C)C(=O)O [compound 17] | – | 10.96 | 11.30 | 11.10
